{
  "source": "patent US11426473B2",
  "about": "“Nitrogen-containing compound or salt thereof, or metal complex thereof” (FUJIFILM Corporation, priority 2013, dated 2022)",
  "key": {"[1]": {"test_system": "U87MG cells subcutaneous tumor", "experiment": "Concentration of radioactivity in tumor of labeled compounds (Test Example 4)", "assay_type": "in vivo, mouse", "conditions": "tail vein, 111In 740 kBq, 64Cu and 90Y 500 kBq", "summary_of_the_method": "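Balb/cAJcl-nu/nu mice (6–9 weeks) bearing subcutaneous U87MG flank tumours (1×10^7 cells; 200–500 mm^3), 3 per time point, received ^111In-labeled (740 kBq), ^64Cu- or ^90Y-labeled compound (500 kBq) i.v. via tail vein. At set times tumours were excised, weighed and gamma-counted; uptake expressed as % ID/g.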"}, "[2]": {"test_system": "U87MG cells subcutaneous tumor", "experiment": "Imaging of integrin-expressing tumor with gamma camera", "assay_type": "in vivo", "conditions": "1 MBq/mouse tail vein, 24 hours to 72 hours after administration, FIG. 6", "method": "U87MG cells were subcutaneously transplanted at 1×10^7 cells/mouse to the right flank of Balb/cAJcl-nu/nu (CLEA Japan, Inc., male, 6 weeks old). After 2 weeks, a dosing solution of the radiolabeled compound [^111In]-(P2) was administered at 1 MBq/mouse to the tail veins of mice whose tumors became 300 to 600 mm^3. 24, 48, and 72 hours after administration, the planar images were taken with a gamma camera (Symbia, Siemens AG) under isoflurane anesthesia. The radioactivity in the tumors (% ID) was calculated by image analysis."}, "[3]": {"test_system": "U87MG cells intracranial tumor", "experiment": "Imaging of integrin-expressing tumor, intracranial tumor model", "assay_type": "in vivo", "conditions": "1 MBq/mouse tail vein, FIG. 7", "method": "U87MG cells were intracranially transplanted at 1×10^7 cells/mouse to Balb/cAJcl-nu/nu (CLEA Japan, Inc., male, 6 weeks old) using a tapered needle. After 2 to 4 weeks, a dosing solution of the radiolabeled compound [^111In]-(P2) was administered at 1 MBq/mouse to the tail veins of the mice. 24, 48, and 72 hours after administration, the planar images were taken with a gamma camera (Symbia, Siemens AG) under isoflurane anesthesia (FIG. 7). After the imaging at the final time point, the brain was extracted, and frozen sections were prepared. Several pieces of the tumor sections were contacted with IP plates, and accumulation images were obtained by autoradiography (ARG). The serial sections were stained with hematoxylin-eosin to confirm tumors."}, "[4]": {"experiment": "Blood kinetic parameters in monkey", "assay_type": "in vivo", "conditions": "cynomolgus monkey, blood radioactivity, 98 MBq", "method": "(§1) Blood kinetic parameters were calculated with OLINDA/EXM 1.0 from the blood concentration of radioactivity by blood collection over time from a cynomolgus monkey using [^111In]-(P2). Also, absorbed doses in each organ in the case of administration to humans were calculated with OLINDA/EXM 1.0 from organ distribution by imaging using [^111In]-(P2). The radiolabeled compound [^111In]-(P2) (98 MBq/[…]) was administered to a cynomolgus monkey (Hamri Co., Ltd., male, 3 years old, 3.4 kg) under anesthesia. After the administration, blood collection and imaging with a gamma camera were performed over time. The blood collection was carried out 10 minutes, 30 minutes, 60 minutes, 2 hours, 4 hours, 5 hours, 6 hours, 24 hours, 48 hours, 72 hours, and 144 hours after administration. The imaging was carried out 1, 2, 4, 6, 24, 48, 72, and 144 hours after administration with a gamma camera (Symbia, Siemens AG) to take planar images. The anesthesia was carried out using 20 mg/kg ketamine before administration of [^111In]-(P2) and maintained by inhalation anesthesia (2 to 3% isoflurane, 5 to 8 L/min) until the completion of the imaging at 6 hours after administration. At or after 24 hours after administration, blood collection and imaging were performed by the introduction of 20 mg/kg ketamine and 2 mg/kg xylazine. […] The blood kinetic parameters are shown below."}, "[5]": {"experiment": "Time-dependent planar imaging of monkey", "assay_type": "in vivo", "conditions": "cynomolgus monkey, from administration to 6 hours later, FIG. 9", "method": "as §1, with “below. […]” for “below.”"}, "[6]": {"experiment": "Absorbed doses in each organ in humans calculated with OLINDA/EXM 1.0 from monkey organ distribution", "assay_type": "in vivo", "conditions": "calculated with OLINDA/EXM 1.0 from monkey imaging with [111In]-(P2)", "method": "as §1"}, "[7]": {"experiment": "Radiochemical purity after standing at room temperature", "assay_type": "physicochemical", "conditions": "immediately after preparation and after standing at room temperature for 24 hours", "method": "To a mixed solution of compound (P2) (8.5 μg) and a 0.2 mol/L sodium acetate buffer solution (pH 4.0) (1.5 mL), a [^111In] indium chloride solution (80 MBq, 100 μL) was added. The mixture was heated at 100° C. for 15 minutes and then left at room temperature for 5 minutes to obtain radiolabeled compound [^111In]-(P2). […] Its radiochemical purity was 95% or more both immediately after preparation and after standing at room temperature for 24 hours.\nTo a mixed solution of compound (P2) (79 μg), gentisic acid (1.8 mg), a 0.6 mol/L sodium acetate buffer solution (pH 4.0, 120 μL), and a 0.4 mol/L aqueous sodium hydroxide solution (24 μL), a [^90Y] yttrium chloride solution (700 MBq, 240 μL) was added. The mixture was heated at 100° C. for 20 minutes and then left at room temperature for 5 minutes to obtain radiolabeled compound [^90Y]-(P2). […] Its radiochemical purity was 95% or more both immediately after preparation and after standing at room temperature for 24 hours.\nTo a mixed solution of compound (P2) ([…]) and a 0.2 mol/L sodium acetate buffer solution (pH 4.0, 219 μL), a [^64Cu] copper chloride solution (pH 5, 35 MBq, 55 μL) was added. The mixture was heated at 100° C. for 15 minutes and then left at room temperature for 5 minutes to obtain radiolabeled compound [^64Cu]-(P2). […] Its radiochemical purity was 90% or more both immediately after preparation and after standing at room temperature for 22 hours.\nTo a mixed solution of compound (Aa7) (4.2 μg), gentisic acid (1 mg), and a 0.2 mol/L sodium acetate buffer solution (pH 4.0) (5.0 μL), [^64Cu] copper chloride in a 0.2 mol/L sodium acetate buffer solution (pH 4.0) (40 MBq, 155 μL) was added. The mixture was heated at 100° C. for 15 minutes and then left at room temperature for 5 minutes to obtain radiolabeled compound [^64Cu]-(Aa7). […] Its radiochemical purity was 90% or more both immediately after preparation and after standing at room temperature for 24 hours."}},
  "data": [
    {"smiles": "Cc1cc(OCCCC(=O)NCCNC(=O)[C@H](CS(=O)(=O)O)NC(=O)CN2CCN(CC(=O)[O-])CCN(CC(=O)[O-])CCN(CC(=O)[O-])CC2)cc(C)c1S(=O)(=O)N[C@@H](CNC(=O)CCCCc1ccc2c(n1)NCCC2)C(=O)O.[111In+3]", "note": "[[^111In]-(P2)]", "values": [
      {"measurement": "Concentration of radioactivity in tumor", "setting": "[1]; 4 hours later", "value": 11.10, "unit": "% ID/g"},
      {"measurement": "Concentration of radioactivity in tumor", "setting": "[1]; 24 hours later", "value": 9.62, "unit": "% ID/g"},
      {"measurement": "radioactivity in tumor versus other organs, planar images", "setting": "[2]", "value": "radioactivity was higher in the tumor than other organs"},
      {"measurement": "accumulation in intracranial tumor by planar imaging and ARG", "setting": "[3]", "value": "consistent with the tumor was confirmed"},
      {"measurement": "AUC", "setting": "[4]", "value": 0.22, "unit": "% ID · h/mL"},
      {"measurement": "CL", "setting": "[4]", "value": 2.17, "unit": "mL/min/kg"},
      {"measurement": "Cmax", "setting": "[4]", "value": 0.018, "unit": "% ID/mL"},
      {"measurement": "T½ α", "setting": "[4]", "value": 0.46, "unit": "h"},
      {"measurement": "T½ β", "setting": "[4]", "value": 19.3, "unit": "h"},
      {"measurement": "Vss", "setting": "[4]", "value": 3.52, "unit": "L/kg"},
      {"measurement": "organ accumulation on planar images", "setting": "[5]", "value": "accumulation to the bladder and the gallbladder was increased over time"},
      {"measurement": "Absorbed dose, Brain", "setting": "[6]", "value": 0.25, "unit": "mGy/MBq"},
      {"measurement": "Absorbed dose, Kidney", "setting": "[6]", "value": 1.19, "unit": "mGy/MBq"},
      {"measurement": "Absorbed dose, Liver", "setting": "[6]", "value": 0.19, "unit": "mGy/MBq"},
      {"measurement": "Absorbed dose, Lung", "setting": "[6]", "value": 0.12, "unit": "mGy/MBq"},
      {"measurement": "Absorbed dose, Red bone marrow", "setting": "[6]", "value": 0.05, "unit": "mGy/MBq"},
      {"measurement": "Absorbed dose, Small intestine", "setting": "[6]", "value": 0.05, "unit": "mGy/MBq"},
      {"measurement": "Absorbed dose, Whole body", "setting": "[6]", "value": 0.05, "unit": "mGy/MBq"},
      {"measurement": "radiochemical purity after standing", "setting": "[7]", "value": "≥ 95", "unit": "%"}
    ]}
  ]
}
